From patent publication US11548894B2, “Benzamide or benzamine compounds useful as anticancer agents for the treatment of human cancers” (The Board of Regents of the University of Texas System, priority 2015, dated 2023)
Where a name gives a salt, the structure may show the parent alone.

What follows are molecules tested on Mut6 cells (TD-NSC) (assay: luminescence-based Celltiter-Glo cell viability assay (ATP levels) on Mut6 tumor derived neuronal stem cells). Settings: ATP activity as measure of viability, 96 hours; Hydrochloride; read-out: EC50 (TD-NSC).
Set-up: species or system mouse
Text: A mouse colony with 100% incidence of GBM and with conditional knockout of p53, pTEN and NF1 genes (Mut6; glioblastoma) was used to isolate primary neuronal stem cells from GBM tumors cultured in 5% Oxygen and in serum free media with defined growth factors. Primary cells from multiple tumors were pooled for high throughput screening with controls against the University of Texas Southwestern (UTSW) compound file, which encompasses ˜200,000 synthetic compounds that represent a large chemical space from several commercial vendors, including 1200 marketed drugs from the Prestwick Chemical Library®, and 600 compounds that went to pre-clinical tests from the NIH library.
A luminescence-based Celltiter-Glo® assay was performed to measure cell viability, using ATP levels as the readout. In brief, opaque-walled multiwell plates with Mut6 cells in culture medium (25 μl per well, 384-well plates) were prepared. Control wells containing medium without cells were prepared to obtain a value for background luminescence. Test compounds were added to experimental wells, and incubated according to culture protocol. The plate and its contents were incubated at 37° C., 5% […] for 96 hours. An ATP standard curve was generated immediately prior to adding the CellTiter-Glo® Reagent. A volume of CellTiter-Glo® Reagent equal to the volume of cell culture medium present in each well (25 μl of reagent to 25 μl of medium containing cells for a 384-well plate) was added. The contents were mixed for 2 minutes on an orbital shaker to induce cell lysis. The plate was allowed to incubate at room temperature for 10 minutes to stabilize the luminescent signal and luminescence recorded. (e.g. GloMax®, Lumistar, SPECTROstar, PHERAstar FS).
Compound 4C12 served as initial lead compound for analog development and for additional studies. […] See Wager, T T et al, “Moving beyond rules: the development of a central nervous system multi-parameter-optimization (CNS MPO) approach to enable alignment of drug-like properties,” ACS Chem. Neurosci. 1(6): 435-49 (2010). IC50 curves for the analog compounds plotted as ATP activity (y axis, a measure of viability) vs. concentration (nM) (x-axis) are shown in FIG. 9.
`CCN1CCCC1CNC(=O)c1ccc(Sc2ccc(F)cc2)c([N+](=O)[O-])c1` (stereo not drawn) [DS-1-191, N-((1-ethylpyrrolidin-2-yl)methyl)-4-((4-fluorophenyl)thio)-3-nitrobenzamide Hydrochloride] was tested, and the EC50 was 95 nM. For `CCN(CC)CCNC(=O)c1ccc(Sc2ccc(F)cc2)c([N+](=O)[O-])c1` [DS-1-239, N-(2-(diethylamino)ethyl)-4-((4-fluorophenyl)thio)-3-nitrobenzamide Hydrochloride], the EC50 was 59 nM. `O=C(NCCN1CCOCC1)c1ccc(Sc2ccc(F)cc2)c([N+](=O)[O-])c1` [DS-1-241, 4-((4-fluorophenyl)thio)-N-(2-morpholinoethyl)-3-nitrobenzamide Hydrochloride] gave an EC50 of 44 nM.

Same assay, conditions: Mus musculus, 96 h, ATP activity as measure of viability, 96 hours; read-out: EC50 (TD-NSC)
Molecule `O=C(NCc1ccccn1)c1ccc(Sc2ccc(F)cc2)c([N+](=O)[O-])c1` [DS-1-023, 4-((4-fluorophenyl)thio)-3-nitro-N-(pyridin-2-ylmethyl)benzamide] has an EC50 of over 1000 nM. Work on `CCN1CCCC1CNC(=O)c1ccc(Sc2ccc(C(F)(F)F)cc2)c([N+](=O)[O-])c1` (stereo not drawn) [DS-1-065, N-((1-ethylpyrrolidin-2-yl)methyl)-3-nitro-4-((4-(trifluoromethyl)phenyl)thio)benzamide] yielded an EC50 of 86 nM. Molecule `CCN1CCCC1CNC(=O)c1ccc(Sc2ccc(F)c(F)c2)c([N+](=O)[O-])c1` (stereo not drawn) [DS-1-067, 4-((3,4-difluorophenyl)thio)-N-((1-ethylpyrrolidin-2-yl)methyl)-3-nitrobenzamide] has an EC50 of 118 nM. `CCN1CCCC1CNC(=O)c1ccc(Sc2ccccn2)c([N+](=O)[O-])c1` (stereo not drawn) [DS-1-071, N-((1-ethylpyrrolidin-2-yl)methyl)-3-nitro-4-(pyridin-2-ylthio)benzamide] gave an EC50 of 419 nM. `CCN1CCCC1CNC(=O)c1ccc(Sc2ccccc2F)c([N+](=O)[O-])c1` (stereo not drawn) [DS-1-075, N-((1-ethylpyrrolidin-2-yl)methyl)-4-((2-fluorophenyl)thio)-3-nitrobenzamide] gave an EC50 of 102 nM. With `CCN1CCCC1CNC(=O)c1ccc(Sc2ccc(NC(C)=O)cc2)c([N+](=O)[O-])c1` (stereo not drawn) [DS-1-077, 4-((4-acetamidophenyl)thio)-N-((1-ethylpyrrolidin-2-yl)methyl)-3-nitrobenzamide] the EC50 was over 1000 nM. `O=C(NCCN1CCOCC1)c1ccc(Sc2ccc(F)cc2)c([N+](=O)[O-])c1` [DS-1-089, 4-((4-fluorophenyl)thio)-N-(2-morpholinoethyl)-3-nitrobenzamide] gave an EC50 of 25 nM. Work on `CCN1CCCC1CNC(=O)c1ccc(Oc2ccc(F)cc2)c([N+](=O)[O-])c1` (stereo not drawn) [DS-1-103, N-((1-ethylpyrrolidin-2-yl)methyl)-4-(4-fluorophenoxy)-3-nitrobenzamide] yielded an EC50 of 36 nM. For `CCN1CCCC1CNC(=O)c1ccc(Nc2ccc(F)cc2)c([N+](=O)[O-])c1` (stereo not drawn) [DS-1-105, N-((1-ethylpyrrolidin-2-yl)methyl)-4-((4-fluorophenyl)amino)-3-nitrobenzamide], the EC50 was 255 nM. For `CCN1CCCC1CNC(=O)c1ccc(Sc2ccc(F)cc2)cc1` (stereo not drawn) [DS-1-117, N-((1-ethylpyrrolidin-2-yl)methyl)-4-((4-fluorophenyl)thio)benzamide], the EC50 was 394 nM. With `CC[N+]1(C)CCCC1CNC(=O)c1ccc(Sc2ccc(F)cc2)c([N+](=O)[O-])c1` (stereo not drawn) [DS-1-119, 1-ethyl-2-((4-((4-fluorophenyl)thio)-3-nitrobenzamido)methyl)-1-methylpyrrolidin-1-ium Iodide] the EC50 was over 1000 nM. `CCN1CCCC1CNC(=O)c1ccc(Sc2ccc(C(C)C)cc2)c([N+](=O)[O-])c1` (stereo not drawn) [DS-1-123, N-((1-ethylpyrrolidin-2-yl)methyl)-4-((4-isopropylphenyl)thio)-3-nitrobenzamide] was tested, and the EC50 was 516 nM. For `CCN1CCCC1CNC(=O)c1ccc([S+]([O-])c2ccc(F)cc2)c([N+](=O)[O-])c1` (stereo not drawn) [DS-1-135, N-((1-ethylpyrrolidin-2-yl)methyl)-4-((4-fluorophenyl)sulfinyl)-3-nitrobenzamide], the EC50 was over 1000 nM. `CCN1CCCC1CNC(=O)c1ccc(SC2CCCCC2)c([N+](=O)[O-])c1` (stereo not drawn) [DS-1-139, 4-(cyclohexylthio)-N-((1-ethylpyrrolidin-2-yl)methyl)-3-nitrobenzamide] was tested, and the EC50 was 192 nM. `CCN1CCCC1CNC(=O)c1ccc(Sc2ccc(N)cc2)c([N+](=O)[O-])c1` (stereo not drawn) [DS-1-177, 4-((4-aminophenyl)thio)-N-((1-ethylpyrrolidin-2-yl)methyl)-3-nitrobenzamide] showed an EC50 of 340 nM. Molecule `CCN1CCCC1CNC(=O)c1ccc(Sc2ccc(C(=O)O)cc2)c([N+](=O)[O-])c1` (stereo not drawn) [DS-1-179, 4-((4-(((1-ethylpyrrolidin-2-yl)methyl)carbamoyl)-2-nitrophenyl)thio)benzoic Acid Hydrochloride] has an EC50 of over 1000 nM. `CCN1CCCC1CNC(=O)c1ccc(-c2ccc(F)cc2)c([N+](=O)[O-])c1` (stereo not drawn) [DS-1-181, N-((1-ethylpyrrolidin-2-yl)methyl)-4′-fluoro-2-nitro-[1,1′-biphenyl]-4-carboxamide] showed an EC50 of over 1000 nM. Work on `CCN1CCCC1CNC(=O)c1ccc(-c2cccc(F)c2)c([N+](=O)[O-])c1` (stereo not drawn) [DS-1-183, N-((1-ethylpyrrolidin-2-yl)methyl)-3′-fluoro-2-nitro-[1,1′-biphenyl]-4-carboxamide] yielded an EC50 of over 1000 nM. Molecule `CCN1CCCC1CNC(=O)c1ccc(Sc2ccc(Br)cc2)c([N+](=O)[O-])c1` (stereo not drawn) [DS-1-185, 4-((4-bromophenyl)thio)-N-((1-ethylpyrrolidin-2-yl)methyl)-3-nitrobenzamide] has an EC50 of 62 nM. For `CN(CCN)CCNC(=O)c1ccc(Sc2ccc(F)cc2)c([N+](=O)[O-])c1` [DS-1-195, N-(2-((2-aminoethyl)(methyl)amino)ethyl)-4-((4-fluorophenyl)thio)-3-nitrobenzamide], the EC50 was over 1000 nM. `CN(CCNC(=O)CCCC[C@@H]1SC[C@@H]2NC(=O)N[C@@H]21)CCNC(=O)c1ccc(Sc2ccc(F)cc2)c([N+](=O)[O-])c1` [DS-1-205] showed an EC50 of 40000 nM. With `CCN1CCCC1CNC(=O)c1ccc(Sc2ccc(F)cc2)nc1` (stereo not drawn) [DS-1-209, N-((1-ethylpyrrolidin-2-yl)methyl)-6-((4-fluorophenyl)thio)nicotinamide] the EC50 was over 1000 nM. Molecule `CCN1CCCC1CNC(=O)c1ccc(NS(=O)(=O)c2ccc(F)cc2)c([N+](=O)[O-])c1` (stereo not drawn) [DS-1-213, N-((1-ethylpyrrolidin-2-yl)methyl)-4-(4-fluorophenylsulfonamido)-3-nitrobenzamide] has an EC50 of over 1000 nM. Molecule `CCN1CCCC1CNC(=O)c1ccc(Sc2ccc(O)cc2)c([N+](=O)[O-])c1` (stereo not drawn) [DS-1-217, N-((1-ethylpyrrolidin-2-yl)methyl)-4-((4-hydroxyphenyl)thio)-3-nitrobenzamide] has an EC50 of 485 nM. `CCN1CCCC1CNC(=O)c1ccc(Sc2ccc(F)cc2)c(N)c1` (stereo not drawn) [DS-1-225, 3-amino-N-((1-ethylpyrrolidin-2-yl)methyl)-4-((4-fluorophenyl)thio)benzamide] showed an EC50 of 192 nM. Molecule `CCN1CCCC1CNC(=O)c1ccc(Sc2ccc(F)cc2)c(C(N)=O)c1` (stereo not drawn) [DS-1-231-M, N^1-((1-ethylpyrrolidin-2-yl)methyl)-4-((4-fluorophenyl)thio)isophthalamide] has an EC50 of over 1000 nM. Molecule `C#CCOc1ccc(Sc2ccc(C(=O)NCC3CCCN3CC)cc2[N+](=O)[O-])cc1` (stereo not drawn) [DS-1-261, N-((1-ethylpyrrolidin-2-yl)methyl)-3-nitro-4-((4-(prop-2-yn-1-yloxy)phenyl)thio)benzamide] has an EC50 of 269 nM. In the case of `CCOC(=O)c1cc(F)ccc1Sc1ccc(C(=O)NCC2CCCN2CC)cc1[N+](=O)[O-]` (stereo not drawn) [DS-1-265, Ethyl 2-((4-(((1-ethylpyrrolidin-2-yl)methyl)carbamoyl)-2-nitrophenyl)thio)-5-fluorobenzoate], the EC50 is reported as over 1000 nM. Work on `CCN1CCCC1CNC(=O)c1ccc(Sc2cccc3cccnc23)c([N+](=O)[O-])c1` (stereo not drawn) [DS-1-269, N-((1-ethylpyrrolidin-2-yl)methyl)-3-nitro-4-(quinolin-8-ylthio)benzamide] yielded an EC50 of 535 nM. `CCN1CCCC1CNC(=O)c1ccc(Sc2ccc(C)cc2)c([N+](=O)[O-])c1` (stereo not drawn) [DS-1-271, N-((1-ethylpyrrolidin-2-yl)methyl)-3-nitro-4-(p-tolylthio)benzamide] gave an EC50 of 55 nM. `O=C(NCC1CCCO1)c1ccc(Sc2ccc(F)cc2)c([N+](=O)[O-])c1` (stereo not drawn) [DS-1-275, 4-((4-fluorophenyl)thio)-3-nitro-N-((tetrahydrofuran-2-yl)methyl)benzamide] was tested, and the EC50 was over 1000 nM. `CCN1CCCC1COC(=O)c1ccc(Sc2ccc(F)cc2)c([N+](=O)[O-])c1` (stereo not drawn) [DS-1-287, (1-ethylpyrrolidin-2-yl)methyl 4-((4-fluorophenyl)thio)-3-nitrobenzoate] was tested, and the EC50 was over 1000 nM.

Same assay, conditions: Mus musculus; ATP activity as measure of viability, 96 hours; read-out: EC50 (TD-NSC)
`CCN1CCCC1CNC(=O)c1ccc(Sc2ccc([N+](=O)[O-])cc2)c([N+](=O)[O-])c1` (stereo not drawn) [DS-1-137, N-((1-ethylpyrrolidin-2-yl)methyl)-3-nitro-4-((4-nitrophenyl)thio)benzamide] was tested, and the EC50 was 69 nM.
